Test results from article PMC7170498, “Targeted alpha therapy using astatine (^211At)-labeled phenylalanine: A preclinical study in glioma bearing mice” (Oncotarget, 2020).

Assays:
GL261 cells = experiment: In vitro cellular uptake and inhibition assay of ^211At-PA; type: cell-based, murine; details: Mus musculus, 20 mM BCH added 5 min before para-^211At-PA, compared to baseline, read-out: inhibition of ^211At-PA uptake by addition of BCH
Method: (§1) The C6 rat glioma cell line was provided by RIKEN BRC (Tsukuba, Japan) and cultured in F-12K medium (Gibco, Grand Island, NY, USA) containing 10% fetal bovine serum (FBS; Sigma-Aldrich). The U-87 MG human glioblastoma cell line was purchased from American Type Culture Collection (Manassas, VA, USA) and cultured in Modified Eagle’s medium (MEM; Sigma-Aldrich, St. Louis, MO, USA) containing 1% Non Essential Amino Acids (NEAA) + 1 mM Sodium Pyruvate (NaP) and 10% FBS. The GL261 murine glioma cell line was provided by the In Vivo Cellular and Molecular Imaging Lab at Vrije Universiteit, Brussels and cultured in high-glucose Dulbecco’s MEM (DMEM; Wako Pure Chemical, Osaka, Japan) containing 10% FBS. All cells were maintained at 37°C in a humidified incubator containing 5% CO2 and were washed with phosphate-buffered saline (PBS) and harvested with trypsin as necessary. LAT1 expression of these cells were confirmed in previous studies.
(§2) Initially, the cells were seeded onto a 24-well plate (density: 1 × 10^5/well) and cultured for 2 days. […] Counts per minute (CPM) of the samples were measured by gamma counter. The protein concentrations were measured using the BCA protein assay kit (FUJIFILM Wako Pure Chemical) and a plate reader (Multiskan FC, ThermoFisher Scientific, USA). […]

C6 glioma cells = experiment: as above; type: cell-based; details: Rattus norvegicus, 20 mM BCH added 5 min before para-^211At-PA, compared to baseline, read-out: inhibition of ^211At-PA uptake by addition of BCH
Method: as §1, §2

U-87MG cells = experiment: as above; type: cell-based; details: Homo sapiens, 20 mM BCH added 5 min before para-^211At-PA, compared to baseline, read-out: inhibition of ^211At-PA uptake by addition of BCH
Method: as §1, §2

thyroid gland = details: ^211At-astatide deastatinated from ^211At-PA; cited from earlier work
[1] = Stability of the radiolabeled products in vials; type: physicochemical; details: for 24 hr
Method: Ascorbic acid, para-borono-L-phenylalanine (para-BPA), meta-borono-D, L-phenylalanine (meta-BPA), N-bromosuccinimide (NBS), and an injectable solution of 7% sodium hydrogen carbonate (7% NaHCO3) were purchased from Nacalai Tesque (Kyoto, Japan). For the experiments, 1 mg of para-BPA (or meta-BPA) was dissolved in 0.1 mL of 7% NaHCO3. Next, 0.1 mL of the 1% (w/v) para-BPA (or meta-BPA) solution and an aliquot of ^211At aqueous solution (10–20 MBq) were poured into a glass vial, stirred, and mixed with 30 μL of an aqueous solution of 0.4% (w/v) NBS for 30 min at room temperature. Finally, 30 μL of an aqueous solution of 3% (w/v) ascorbic acid was added to the mixture to stop the oxidation reaction, and the mixture was purified using solid-phase extraction. The purified para-^211At-PA or meta-^211At-PA was then analyzed using a high-performance liquid chromatography system (Shimazdu, Kyoto) equipped with a reverse-phase Cosmosil column (5C18 MS2, 150 mm × 4.6 mm; Nacalai Tesque). The products were eluted using a gradient solvent system (0–100% acetonitrile in water) for 20 min and then measured using a gamma-ray detector (GABI star, Elysia-raytest, Germany) and a UV detector at 254 nm.

[2] = Biodistribution and iodine blocking effect in normal ICR mice; type: in vivo, mouse; details: for residence time in major organs (meta- versus para-): intravenous
Method: For the biodistribution study, para- or meta-^211At-PA (0.53 ± 0.04 MBq) was injected into normal male ICR mice (n = 18, 9 weeks old, body weight = 37.7 ± 1.3 g). The mice were sacrificed by euthanasia at 1, 3, and 24 hr post-injection. For the iodine blocking study, normal male ICR mice (n = 6, 9 weeks old, body weight = 37.9 ± 0.9 g) were fed with 2-week iodine-restricted diet. […] The mice were euthanized 3 hr post-administration of para-^211At-PA (0.5 MBq) and dissected.
The major organs (brain, thyroid gland, salivary gland, heart, lung, esophagus, liver, stomach, small intestine, large intestine, kidney, adrenal gland, pancreas, spleen, and testes) and the blood were collected from each mouse, and the radioactivity and weight of each sample were measured using an AccuFlex γ7000 device (Hitachi, Aloka, Japan). Radioactivity counts were normalized by calibration with a standard solution of ^211At. The residence time (hr) was calculated using the trapezoidal method without decay correction.

GL261 allograft = experiment: Treatment effect in GL261 allograft mice; type: in vivo, mouse
Method: (§3) All animal experiments were performed in compliance with the guidelines of the Institute of Experimental Animal Sciences. The protocol was approved by the Animal Care and Use Committee of the Osaka University Graduate School of Medicine. Normal ICR, normal C57BL/6, and nude mice (male) were purchased from Japan SLC Inc. (Hamamatsu, Japan). All animals were housed under a 12-h light/12-hr dark cycle, and given free access to food and water. C6 glioma cells (5.0 × 10^6 cells) or GL-261 cells (1.0 × 10^7 cells) were suspended in 100 μL of culture medium and Matrigel (1:1 ratio; BD Biosciences, Franklin Lakes, NJ, USA). Tumor xenograft and allograft models were prepared via the subcutaneous injection of this C6 glioma cell suspension into each immunodeficient nude mouse (n = 12) and the GL-261 cell suspension into each immunocompetent C57BL/6 mouse (n = 12), respectively.
Para-^211At-PA was injected into mice bearing C6 glioma xenografts (n = 9; 15 weeks old; body weight = 23.8 ± 1.2 g) and GL261 allografts (n = 7; 8 weeks old; body weight = 23.6 ± 1.2 g) at 23 and 20–21 days after implantation, respectively. […] The tumor uptake was calculated as the percent injected dose (%ID). […] The tumor sizes (mm^3) were monitored using a caliper, calculated using the following elliptical sphere model equation, and compared between the injected and control groups of mice. […]

C6 glioma xenograft [3] = experiment: Treatment effect in C6 glioma xenograft mice; type: in vivo, mouse; details: for tumor size ratio (relative to the control): 3 weeks post-injection
Method: as §3
Para-^211At-PA was injected into mice bearing C6 glioma xenografts (n = 9; 15 weeks old; body weight = 23.8 ± 1.2 g) and GL261 allografts (n = 7; 8 weeks old; body weight = 23.6 ± 1.2 g) at 23 and 20–21 days after implantation, respectively. C6 glioma xenograft mice were divided into four groups according to the injected dose: 1 MBq (n = 3, 1.19 ± 0.05 MBq), 0.5 MBq (n = 3, 0.55 ± 0.02 MBq), 0.1 MBq (n = 3, 0.09 ± 0.03 MBq), and control mice without para-^211At-PA administration (n = 3). GL261 allograft mice were divided into two groups: 1 MBq (n = 7, 1.07 ± 0.07 MBq) and control (n = 5). Planar imaging was performed using a gamma camera system (E-cam, Siemens) at 30 min and 3 hr after para-^211At-PA administration. This system targeted the X-rays emitted from the daughter nuclide, ^211Po (energy window: 79 keV ± 20%) (6). Image analysis was performed using AMIDE software (ver. 1.0.4). The tumor uptake was calculated as the percent injected dose (%ID). The absorbed dose (Gy) in the tumor was estimated according to a previous report with the normalization to the tumor volume in the calculation process. The tumor sizes (mm^3) were monitored using a caliper, calculated using the following elliptical sphere model equation, and compared between the injected and control groups of mice.
V = 4/3*π*a^2*b (V: volume of the tumor (mm^3), a: shorter radius (mm) and b: longer radius (mm))

C6 glioma xenograft [4] = experiment: Planar imaging and tumor dosimetry in C6 glioma-bearing mice; type: in vivo, mouse
Method: as §3
Para-^211At-PA was injected into mice bearing C6 glioma xenografts (n = 9; 15 weeks old; body weight = 23.8 ± 1.2 g) and GL261 allografts (n = 7; 8 weeks old; body weight = 23.6 ± 1.2 g) at 23 and 20–21 days after implantation, respectively. […] The tumor uptake was calculated as the percent injected dose (%ID). […] The tumor sizes (mm^3) were monitored using a caliper, calculated using the following elliptical sphere model equation, and compared between the injected and control groups of mice.

[5] = target: T1, L-type amino acid transporter-1 (LAT1) (Homo sapiens, UniProt Q01650); experiment: Transport of para-^211At-PA into Xenopus oocytes expressing LAT1 (compared with LAT2); type: cell-based; details: Xenopus oocytes co-expressing 4F2hc; choline buffer; 5, 15, 45 min
T1 construct: expressed in transfected cells; host or cells: defolliculated Xenopus oocytes injected with polyadenylated cRNA (25 ng/oocyte)
Method: Supplementary Figure 1 lists the cDNAs of human transporters used in this study. First, cRNAs were synthesized in vitro from linearized plasmids using the mMessage mMachine Kit, polyadenylated with a Poly (A) Tailing Kit, and purified with a MEGAclear Kit (all kits: ThermoFisher Scientific, Waltham, MA, USA) according to the manufacturer’s protocols. Next, defolliculated Xenopus oocytes were injected with polyadenylated cRNA (25 ng/oocyte) to induce expression. An equimolar amount of 4F2hc cRNA was co-injected to ensure the functional expression of LAT1 and LAT2 [24–26].
Amino acid transport was measured in the oocytes 2–4 days after cRNA injection, as previously described. Briefly, the oocytes were incubated at room temperature with 500 μL of uptake buffer (choline uptake solution: 100 mM (CH3)3N (Cl) CH2CH2OH, 2 mM KCl, 1.8 mM CaCl2.2H2O, 1 mM MgCl2, 5 mM HEPES, pH 7.5) containing ^211At-PA (approximately 10kBq/oocyte). Radioactivity was determined using a gamma counter. Nine to 11 oocytes were used for each transport measurement. Two separate experiments were performed using different batches of oocytes to confirm the reproducibility of the results.

[6] = system: intracranial glioblastomas; set-up: method as in PMID 24036694; details: intravenous treatment; rats with intracranial glioblastomas; cited from earlier work
glioblastoma = system: glioblastoma; set-up: method as in PMID 19269895; details: patients with glioblastoma after temozolomide therapy; cited from earlier work
[7] = NaI 10 mg/kg i.v. 24 and 3 hr before, 3 hr post-administration

T1 sequence (Q01650 whole entry): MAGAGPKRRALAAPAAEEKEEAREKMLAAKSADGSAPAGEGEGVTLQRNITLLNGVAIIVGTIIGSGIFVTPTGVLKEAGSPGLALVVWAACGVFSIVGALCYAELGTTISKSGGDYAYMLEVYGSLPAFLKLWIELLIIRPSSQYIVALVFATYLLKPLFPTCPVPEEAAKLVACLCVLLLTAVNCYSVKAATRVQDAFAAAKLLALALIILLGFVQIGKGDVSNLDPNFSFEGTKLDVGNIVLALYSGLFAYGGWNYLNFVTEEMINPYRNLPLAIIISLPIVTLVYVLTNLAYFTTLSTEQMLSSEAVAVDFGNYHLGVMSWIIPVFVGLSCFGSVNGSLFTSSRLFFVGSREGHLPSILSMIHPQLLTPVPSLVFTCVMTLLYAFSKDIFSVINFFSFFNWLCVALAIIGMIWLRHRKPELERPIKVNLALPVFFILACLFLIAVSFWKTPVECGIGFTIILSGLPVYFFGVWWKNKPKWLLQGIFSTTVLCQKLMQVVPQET
T1 sequence (P08195 102-630 partner): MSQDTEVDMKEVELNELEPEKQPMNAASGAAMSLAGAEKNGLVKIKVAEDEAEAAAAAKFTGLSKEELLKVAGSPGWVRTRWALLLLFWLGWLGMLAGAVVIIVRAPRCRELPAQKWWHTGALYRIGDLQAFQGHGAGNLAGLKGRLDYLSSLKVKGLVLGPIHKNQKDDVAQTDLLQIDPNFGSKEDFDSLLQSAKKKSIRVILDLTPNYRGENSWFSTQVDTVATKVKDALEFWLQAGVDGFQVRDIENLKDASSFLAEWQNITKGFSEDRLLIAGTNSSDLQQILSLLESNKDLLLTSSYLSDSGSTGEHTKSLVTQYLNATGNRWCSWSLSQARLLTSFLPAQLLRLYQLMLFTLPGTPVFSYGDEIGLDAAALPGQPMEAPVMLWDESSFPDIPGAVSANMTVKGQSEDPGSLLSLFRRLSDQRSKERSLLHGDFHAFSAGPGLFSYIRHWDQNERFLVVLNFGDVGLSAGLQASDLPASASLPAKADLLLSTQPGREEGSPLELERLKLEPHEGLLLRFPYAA

NC1(C(=O)O)CC2CCC1C2 (stereo not drawn) [BCH, 2-aminobicyclo-(2,2,1)-heptane-2-carboxylic acid]
inhibition at 20000 µM (GL261 cells): 12.6 ± 2% | inhibition at 20000 µM (C6 glioma cells): 12.2 ± 0.8% | inhibition at 20000 µM (U-87MG cells): 27.6 ± 1.1%

[211AtH] [^211At-astatide]
reduction of thyroid uptake following pre-administration of iodine (thyroid gland): 80%

N[C@@H](Cc1cccc([211At])c1)C(=O)O [meta-^211At-PA]
stability in vials [1]: remained stable | residence time in major organs (meta- versus para-) [2]: comparable results

N[C@@H](Cc1ccc([211At])cc1)C(=O)O [para-^211At-PA, ^211At-para-astato-L-PA]
relative tumor size (GL261 allograft; 1 MBq, day 32): 0.24 | changes in body weights versus control mice (GL261 allograft; GL261 allograft model): No significant differences | stability in vials [1]: remained stable | tumor size ratio (relative to the control) (C6 glioma xenograft [3]; 0.1 MBq): 0.60 | tumor size ratio (relative to the control) (C6 glioma xenograft [3]; 0.5 MBq): 0.40 | tumor size ratio (relative to the control) (C6 glioma xenograft [3]; 1 MBq): 0.25 | changes in body weights versus control mice (C6 glioma xenograft [3]; C6 glioma xenograft model): No significant differences | tumor uptake (planar imaging) (C6 glioma xenograft [4]; 30 min post-injection): 3.7 ± 0.8 %ID | tumor uptake (planar imaging) (C6 glioma xenograft [4]; 3 hr post-injection): 1.5 ± 0.2 %ID | accumulation in the heart and spleen with iodine blocking [2, 7]: increased accumulation | decrease in accumulation in the thyroid by iodine blocking [2, 7]: 81% | residence time in major organs (meta- versus para-) [2]: comparable results | transport into oocytes by LAT1 compared with LAT2 [5]: Significantly greater transport | health conditions and survival durations [6]: improved the health conditions and enhanced the survival durations

Cn1nnc2c(C(N)=O)ncn2c1=O [temozolomide]
5-year overall survival rate (glioblastoma): 9.8%
